Legend:
[1] = system: patient with Raynaud's syndrome; test: Raynaud's syndrome signs or symptoms; type: in vivo, human; conditions: 300 mg/kg per day in four equal doses over 24 hours
Text: This example sets forth the treatment of a patient with signs or symptoms of disease associated with reduced blood flow to an organ or tissue (correlated with hypertonicity of the associated blood vessels) using high doses of famciclovir, a compound of Formula (II) where B is H and each of R1 and R2 is CH3C(O)—, at a level and under conditions as explained below.
A patient weighing about 100 kg having multiple signs or symptoms of autoimmune disease had been ingesting famciclovir for several years at about 10 g per day taken 4 times daily during a 24 hour period. While the subject's condition was tolerable, they were in a regular state of pain in the joints and had other signs or symptoms discussed below.
The patient also presented signs or symptoms of Raynaud's syndrome, which involves marked or severe vasoconstriction and ischemia in the extremities, usually fingers and toes. As a result, the patient often experienced extreme pain, cold, discoloration, lack of sensation and weakness in the affected parts. […] The signs or symptoms returned when the frequency of taking the drug was lowered from once every 6 hours to once every 10 hours.

patient lung function = test: lung function by blood oxygenation (pulse oximetry); type: in vivo, human
Text: Still another example of improvement that the inventor has discovered is improved pulmonary function. […] The pulmonary function was increased to 96% SATS by using the very high dose treatment of this invention. […] Thus the method of this invention can treat and reverse pulmonary hypertension and pulmonary fibrosis. […] Improvements of this kind in this range with this kind of patient (no known existing lung disease) are unusual. Thus, another aspect of this invention is a method to improve pulmonary function by administering a compound in accordance with the teachings herein. Treatments which cause similar improvements in patients with lung disease are direct acting relaxants upon the muscles of the vessels and the airways of the lung. The compounds of this invention have no such direct effect, and can only relax these critical lung muscles by suppressing the herpetically-induced “hypertonus” or resting tone of these muscles which was elevated above normal tone by the herpetic activity in the cells of the sympathetic chain which control these muscles.
An improvement in lung function was seen, possibly via relief of pulmonary hypertension, while taking famciclovir at 300 mg/kg per day. […] The patient's oxyhemoglobin increased from 92% to 96%. This small improvement is significant for this parameter in the 90%-100% range. […]

[2] = system: patient with rheumatoid arthritis; test: rheumatoid arthritis signs or symptoms; type: in vivo, human; conditions: 300 mg/kg per day
Method: Another effect of anti-herpes drugs was elimination of the signs or symptoms of rheumatoid arthritis. A patient experienced 100% reduction in joint swelling, pain, inflammation and clicks at 300 mg/kg of famciclovir per day.

[3] = system: patient with cranial nerve palsy; test: cranial nerve palsy (loss of control of soft palate) and loss of sympathetic nerve function; type: in vivo, human
Text: The loss of sympathetic nerve functions, can occur with a loss of control of some function of some autonomic muscles, or loss of sensation or both. This is not as common as 1 through 6, above. And, the effects are usually not as severe. One example is the loss of control of the soft palate, either partial or complete which can cause severe snoring, and is part of the sleep apnea syndrome, and also can cause a snorting sound when talking or laughing, or can cause food to get caught under the soft palate. Another condition is cranial nerve palsies as discussed in the Sixteenth Edition of the Merck Manual at page 2395. […] This new treatment effectively suppresses all of these conditions, and in at least one patient return of most lost function of the soft palate has occurred. In another there was significant return of anal sphincter tone with these doses which had been previously lost on the doses of '114.
A patient was experiencing the loss of control of the soft palate because it could not properly contract, a condition known as cranial nerve palsy. The condition causes snorting during talking and difficulty swallowing food. The food often lodges above the soft palate. These symptoms were 80% eliminated at 300 mg/kg of famciclovir per day.

[4] = system: patient with nutcracker esophagus; test: nutcracker esophagus spasms; type: in vivo, human; conditions: 300 mg/kg per day
Text: Another condition experienced by the patient related to muscle spasms referred to as the “nutcracker esophagus.” This condition involves very painful spasms of the esophagus caused by food touching the hypersensitive “trigger points” inside the esophagus. These spasms can persist from minutes to hours. […] The condition recurs within a few hours when the drug is stopped.

[5] = system: patient with nose and brow acne and rosacea; test: acne and rosacea; type: in vivo, human; conditions: 300 mg/kg per day
Method: Additional symptoms relieved by the high doses of anti-herpes drugs involve severe nose and brow acne and rosacea on the chin and lower cheeks. Although the mechanism for these conditions is not understood, they are believed to be of autoimmune origin. Both skin conditions disappeared at 300 mg/kg of famciclovir per day and recurred when the drug was stopped.

[6] = system: patients with autoimmune disease; test: pain and signs or symptoms of autoimmune disease in general; type: in vivo, human; conditions: very high levels
Method: After the drugs take effect, usually in less than an hour, the pain is at least 50% reduced or disappears. This is a particularly surprising and useful discovery.
In the past, it was observed, that a patient that stopped increasing the dosage of the anti-herpes drugs at the threshold of pain rarely achieves the relief of the autoimmune signs or symptoms. Patients who exceed the pain threshold and take over 20 g per day (over 200 mg/kg/day) start experiencing a reduction in autoimmune symptoms for prolonged periods of time. The pain in such patients eventually disappears. Patients who take even higher doses, 30 g per day for a 100 kg subject (300 mg/kg) and higher, experience a continuous relief of at least 90% of all of their autoimmune signs or symptoms, including pain, as long as they continue taking the drug.
Most importantly, the present invention teaches alleviation of pain associated with autoimmune disease. The prior art, including the '114 patent, teaches to use pain as guide when adjusting the maximum dose of the anti-herpes drug. However, it is now disclosed that a patient should tolerate the pain during the initial period of taking extremely high doses of anti-herpes drugs. After the drugs take effect, usually in less than an hour, the pain is at least 50% reduced or disappears. […]

[7] = system: patient with reduced renal function; conditions: on the doses of '114 (maximum 120 mg/kg/day); improved from 29 mL/min; cited from earlier work
[8] = approved oral dose range; cited from earlier work

## CC(=O)OCC(CCn1cnc2cnc(N)nc21)COC(C)=O [famciclovir, 2-amino-9-(4-acetoxy-3-acetoxymethylbut-1-yl)purine]
[1]
  Raynaud's signs or symptoms (pain, cold, discoloration, lack of sensation, weakness): dramatically abated
Patient lung function; after six months of 300 mg/kg per day, from 92%
  pulse O2 (oxyhemoglobin): 96%
Patient lung function; several years taking about 100 mg/kg
  pulse O2 (oxyhemoglobin): 92%
[2]
  reduction in joint swelling, pain, inflammation and clicks: 100%
[3]; 300 mg/kg daily, over a six-month period
  soft palate muscle strength: gradually returned
[3]; 300 mg/kg per day
  cranial nerve palsy symptoms eliminated: 80%
[4]
  nutcracker esophagus condition: completely relieved and prevented
[5]
  skin conditions (acne, rosacea): disappeared
[6]
  pain associated with autoimmune disease: immediate relief
[7]
  creatinine clearance level: 89 mL/min
[8]
  absorption (dose linearity): linear

Source: patent US20110105434A1, “2-AMINO PURINE DERIVATIVES AND THEIR USE AS ANTI-HERPETIC AGENTS” (priority 2007, published 2011)
